Values of other authors in US20140113001A1, “ENHANCED ACTIVITY HYDROGEN PEROXIDE DISINFECTANT” (Virox Technologies Inc., priority 2002, published 2014).
Like-named read-outs stand apart in the source and are kept apart here.

Tested on: Staphylococcus aureus

SMILES: OO [hydrogen peroxide]
- time required to disinfect surfaces contaminated with staphylococcus aureus (0.1% w/w aqueous solution): 60 min
- time required to disinfect surfaces contaminated with staphylococcus aureus (25.8% w/w aqueous solution): 0.333 min
